Experimental data published in BigSolDB 2.1.

SMILES: CC(=O)Nc1ccc(O)cc1
- solubility (mole fraction) (in acetone, 292.95 K): 0.0327
- solubility (mole fraction) (in acetone, 302.85 K): 0.0411
- solubility (mole fraction) (in acetone, 311.95 K): 0.0534
- solubility (mole fraction) (in acetone, 320.65 K): 0.068
- solubility (mole fraction) (in ethanol, 295.15 K): 0.0549
- solubility (mole fraction) (in ethanol, 305.35 K): 0.0662
- solubility (mole fraction) (in ethanol, 314.15 K): 0.0737
- solubility (mole fraction) (in ethanol, 322.15 K): 0.0898
- solubility (mole fraction) (in ethanol, 332.95 K): 0.116
- solubility (mole fraction) (in ethanol, 341.25 K): 0.141
- solubility (mole fraction) (in ethanol, 350.05 K): 0.18
- solubility (mole fraction) (in ethanol, 360.15 K): 0.216
- solubility (mole fraction) (in isopropanol, 293.65 K): 0.0415
- solubility (mole fraction) (in isopropanol, 304.05 K): 0.0509
- solubility (mole fraction) (in isopropanol, 313.05 K): 0.0604
- solubility (mole fraction) (in isopropanol, 320.25 K): 0.0696
- solubility (mole fraction) (in isopropanol, 325.35 K): 0.0787
- solubility (mole fraction) (in isopropanol, 330.25 K): 0.0876
- solubility (mole fraction) (in isopropanol, 336.15 K): 0.105
- solubility (mole fraction) (in isopropanol, 343.45 K): 0.121
- solubility (mole fraction) (in isopropanol, 348.15 K): 0.136
- solubility (mole fraction) (in isopropanol, 353.05 K): 0.152
- solubility (mole fraction) (in isopropanol, 356.15 K): 0.159
- solubility (mole fraction) (in methanol, 293.45 K): 0.0594
- solubility (mole fraction) (in methanol, 303.55 K): 0.073
- solubility (mole fraction) (in methanol, 313.95 K): 0.0906
- solubility (mole fraction) (in methanol, 323.35 K): 0.111
- solubility (mole fraction) (in methanol, 330.95 K): 0.133
- solubility (mole fraction) (in methanol, 341.55 K): 0.175
- solubility (mole fraction) (in methanol, 354.15 K): 0.229
- solubility (mole fraction) (in n-butanol, 293.05 K): 0.0364
- solubility (mole fraction) (in n-butanol, 302.95 K): 0.0439
- solubility (mole fraction) (in n-butanol, 312.55 K): 0.0526
- solubility (mole fraction) (in n-butanol, 323.05 K): 0.0659
- solubility (mole fraction) (in n-butanol, 332.55 K): 0.0792
- solubility (mole fraction) (in n-butanol, 343.65 K): 0.099
- solubility (mole fraction) (in n-butanol, 353.15 K): 0.126
- solubility (mole fraction) (in n-butanol, 362.65 K): 0.152
- solubility (mole fraction) (in n-pentanol, 303.55 K): 0.038
- solubility (mole fraction) (in n-pentanol, 313.85 K): 0.0468
- solubility (mole fraction) (in n-pentanol, 323.65 K): 0.0571
- solubility (mole fraction) (in n-pentanol, 333.65 K): 0.073
- solubility (mole fraction) (in n-pentanol, 343.55 K): 0.0893
- solubility (mole fraction) (in n-pentanol, 353.75 K): 0.108
- solubility (mole fraction) (in n-pentanol, 361.55 K): 0.129
- solubility (mole fraction) (in n-propanol, 293.05 K): 0.0412
- solubility (mole fraction) (in n-propanol, 302.95 K): 0.0501
- solubility (mole fraction) (in n-propanol, 312.55 K): 0.061
- solubility (mole fraction) (in n-propanol, 322.55 K): 0.0735
- solubility (mole fraction) (in n-propanol, 332.25 K): 0.093
- solubility (mole fraction) (in n-propanol, 342.15 K): 0.117
- solubility (mole fraction) (in n-propanol, 351.25 K): 0.142
- solubility (mole fraction) (in n-propanol, 359.15 K): 0.165
